The series is described as follows: Development form properties of the free compound and the complex (hygroscopicity, stability).

As to “1,6-anhydro-1-C-{4-chloro-3-[(3-fluoro-4-ethoxyphenyl)methyl]phenyl}-5-C-(hydroxymethyl)-β-L-idopyranose L-proline complex [complex of formula (I)]”, the “stability in comparison to the free compound” value is recorded as “improved stability”.
With `CCOc1ccc(Cc2cc(C34OC[C@](CO)(O3)C(O)[C@H](O)C4O)ccc2Cl)cc1F` (stereo in doubt) [1,6-anhydro-1-C-{4-chloro-3-[(3-fluoro-4-ethoxyphenyl)methyl]phenyl}-5-C-(hydroxymethyl)-β-L-idopyranose], under “free compound, background statement”, the hygroscopic properties entry is on record as “hygroscopic”.

These data come from patent publication US10301344B2, “L-proline complex of sodium-glucose cotransporter 2 inhibitor, monohydrate and crystal form thereof” (Jiangsu Hengrui Medicine Co., Ltd., priority 2014, dated 2019).
